From patent publication US20250230193A1, “CYCLIC COMPOUND HAVING SELECTIVE KRAS INHIBITORY EFFECT ON HRAS AND NRAS” (CHUGAI SEIYAKU KABUSHIKI KAISHA, priority 2022, published 2025)

What was measured:
[1] = target: GDP-bound NRAS wild-type protein (Homo sapiens, UniProt P01111); assay: Binding to NRAS by surface plasmon resonance (SPR), Single Cycle Kinetics; details: KD ratio, GDP-bound NRAS wild-type vs GDP-bound KRAS wild-type, SPR
[2] = target: GDP-bound HRAS wild-type protein (Homo sapiens, UniProt P01112); assay: Binding to HRAS by surface plasmon resonance (SPR), Single Cycle Kinetics; details: KD ratio, GDP-bound HRAS wild-type vs GDP-bound KRAS wild-type, SPR
Chain of GDP-bound HRAS wild-type protein (P01112 whole entry): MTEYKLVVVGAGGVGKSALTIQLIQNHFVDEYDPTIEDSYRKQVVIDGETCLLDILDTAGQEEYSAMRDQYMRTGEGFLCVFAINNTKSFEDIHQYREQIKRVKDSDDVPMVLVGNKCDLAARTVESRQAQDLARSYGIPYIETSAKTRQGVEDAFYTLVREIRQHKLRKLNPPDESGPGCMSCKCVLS

Chain of GDP-bound NRAS wild-type protein (P01111 whole entry): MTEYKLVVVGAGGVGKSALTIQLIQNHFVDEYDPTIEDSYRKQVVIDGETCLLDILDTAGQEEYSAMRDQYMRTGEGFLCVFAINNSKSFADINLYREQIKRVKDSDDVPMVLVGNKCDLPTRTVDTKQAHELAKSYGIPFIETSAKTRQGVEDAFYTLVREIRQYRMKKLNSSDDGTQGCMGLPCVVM

Structure (SMILES) | NRAS/KRAS (ratio of KD value with respect to NRAS to KD value with respect to KRAS) [1] | HRAS/KRAS (ratio of KD value with respect to HRAS to KD value with respect to KRAS) [2]
C=CC[C@H]1C(=O)N[C@@H]([C@@H](C)CC)C(=O)N(C)CC(=O)N(C)[C@H]2CCCCN(C2=O)[C@@H](Cc2ccc(C(F)(F)F)cc2)C(=O)N(C)CC(=O)N[C@@H](CCc2cc(F)c(C(F)(F)F)c(F)c2)C(=O)N2C[C@H](OCC)C[C@H]2C(=O)N[C@](C)(CC=C)C(=O)N(C)[C@@H](C2CCCC2)C(=O)N(C)[C@H](C(=O)N2CCOCC2)CC(=O)N1C [PP0874] | C (A compound having a KD ratio of 0.1 or more and less than 3 is denoted as C) | B (a compound having 3 or more and less than 10 is denoted as B)
C=CCC[C@H]1C(=O)N[C@@H]([C@@H](C)CC)C(=O)N(C)CC(=O)N(C)[C@H]2CCCCN(C2=O)[C@@H](Cc2ccc(C(F)(F)F)cc2)C(=O)N(C)CC(=O)N[C@@H](CCc2cc(F)c(C(F)(F)F)c(F)c2)C(=O)N2C[C@H](OCC)C[C@H]2C(=O)N[C@](C)(CC=C)C(=O)N(C)[C@@H](C2CCCC2)C(=O)N(C)[C@H](C(=O)N2CCOCC2)CC(=O)N1C [PP0875] | C (A compound having a KD ratio of 0.1 or more and less than 3 is denoted as C) | B (a compound having 3 or more and less than 10 is denoted as B)
C=CCCC[C@H]1C(=O)N[C@@H]([C@@H](C)CC)C(=O)N(C)CC(=O)N(C)[C@H]2CCCCN(C2=O)[C@@H](Cc2ccc(C(F)(F)F)cc2)C(=O)N(C)CC(=O)N[C@@H](CCc2cc(F)c(C(F)(F)F)c(F)c2)C(=O)N2C[C@H](OCC)C[C@H]2C(=O)N[C@](C)(CC=C)C(=O)N(C)[C@@H](C2CCCC2)C(=O)N(C)[C@H](C(=O)N2CCOCC2)CC(=O)N1C [PP0876] | C (A compound having a KD ratio of 0.1 or more and less than 3 is denoted as C) | C (A compound having a KD ratio of 0.1 or more and less than 3 is denoted as C)
C=CCCCC[C@H]1C(=O)N[C@@H]([C@@H](C)CC)C(=O)N(C)CC(=O)N(C)[C@H]2CCCCN(C2=O)[C@@H](Cc2ccc(C(F)(F)F)cc2)C(=O)N(C)CC(=O)N[C@@H](CCc2cc(F)c(C(F)(F)F)c(F)c2)C(=O)N2C[C@H](OCC)C[C@H]2C(=O)N[C@](C)(CC=C)C(=O)N(C)[C@@H](C2CCCC2)C(=O)N(C)[C@H](C(=O)N2CCOCC2)CC(=O)N1C [PP0877] | C (A compound having a KD ratio of 0.1 or more and less than 3 is denoted as C) | B (a compound having 3 or more and less than 10 is denoted as B)
C=CC[C@H]1C(=O)N[C@@H]([C@@H](C)CC)C(=O)N(C)CC(=O)N(C)[C@H]2CCCCCN(C2=O)[C@@H](Cc2ccc(C(F)(F)F)cc2)C(=O)N(C)CC(=O)N[C@@H](CCc2cc(F)c(C(F)(F)F)c(F)c2)C(=O)N2C[C@H](OCC)C[C@H]2C(=O)N[C@](C)(CC=C)C(=O)N(C)[C@@H](C2CCCC2)C(=O)N(C)[C@H](C(=O)N2CCOCC2)CC(=O)N1C [PP0878] | B (a compound having 3 or more and less than 10 is denoted as B) | B (a compound having 3 or more and less than 10 is denoted as B)
C=CCC[C@H]1C(=O)N[C@@H]([C@@H](C)CC)C(=O)N(C)CC(=O)N(C)[C@H]2CCCCCN(C2=O)[C@@H](Cc2ccc(C(F)(F)F)cc2)C(=O)N(C)CC(=O)N[C@@H](CCc2cc(F)c(C(F)(F)F)c(F)c2)C(=O)N2C[C@H](OCC)C[C@H]2C(=O)N[C@](C)(CC=C)C(=O)N(C)[C@@H](C2CCCC2)C(=O)N(C)[C@H](C(=O)N2CCOCC2)CC(=O)N1C [PP0879] | B (a compound having 3 or more and less than 10 is denoted as B) | B (a compound having 3 or more and less than 10 is denoted as B)
C=CCCC[C@H]1C(=O)N[C@@H]([C@@H](C)CC)C(=O)N(C)CC(=O)N(C)[C@H]2CCCCCN(C2=O)[C@@H](Cc2ccc(C(F)(F)F)cc2)C(=O)N(C)CC(=O)N[C@@H](CCc2cc(F)c(C(F)(F)F)c(F)c2)C(=O)N2C[C@H](OCC)C[C@H]2C(=O)N[C@](C)(CC=C)C(=O)N(C)[C@@H](C2CCCC2)C(=O)N(C)[C@H](C(=O)N2CCOCC2)CC(=O)N1C [PP0880] | B (a compound having 3 or more and less than 10 is denoted as B) | B (a compound having 3 or more and less than 10 is denoted as B)
CCO[C@@H]1C[C@H]2C(=O)NC3(CCC3)C(=O)N(C)[C@@H](C3CCCC3)C(=O)N(C)[C@H](C(=O)N(C)C)CC(=O)N(C)[C@@H](CC)C(=O)N[C@@H]([C@@H](C)CC)C(=O)N(C)CC(=O)N(C)[C@H]3CCCCN(C3=O)[C@@H](Cc3ccc(C(F)(F)F)cc3)C(=O)N(C)CC(=O)N[C@@H](CCc3ccc(C(F)(F)F)c(C)c3)C(=O)N2C1 [PP0882] | C (A compound having a KD ratio of 0.1 or more and less than 3 is denoted as C) | B (a compound having 3 or more and less than 10 is denoted as B)
CCO[C@@H]1C[C@H]2C(=O)NC3(CCC3)C(=O)N(C)[C@@H](C3CCCC3)C(=O)N(C)[C@H](C(=O)N(C)C)CC(=O)N(C)[C@@H](CC)C(=O)N[C@@H]([C@@H](C)CC)C(=O)N(C)CC(=O)N(C)[C@H]3CCCCN(C3=O)[C@@H](Cc3ccc(C(F)(F)F)cc3)C(=O)N(C)CC(=O)N[C@@H](CCc3ccc(C(F)(F)F)c(OC)c3)C(=O)N2C1 [PP0884] | C (A compound having a KD ratio of 0.1 or more and less than 3 is denoted as C) | C (A compound having a KD ratio of 0.1 or more and less than 3 is denoted as C)
CCO[C@@H]1C[C@H]2C(=O)NC3(CCC3)C(=O)N(C)[C@@H](C3CCCC3)C(=O)N(C)[C@H](C(=O)N(C)C)CC(=O)N(C)[C@@H](CC)C(=O)N[C@@H]([C@@H](C)CC)C(=O)N(C)CC(=O)N(C)[C@H]3CCCCN(C3=O)[C@@H](Cc3ccc(C(F)(F)F)cc3)C(=O)N(C)CC(=O)N[C@@H](CCc3ccc(C(F)(F)F)cc3F)C(=O)N2C1 [PP0885] | C (A compound having a KD ratio of 0.1 or more and less than 3 is denoted as C) | B (a compound having 3 or more and less than 10 is denoted as B)
CCO[C@@H]1C[C@H]2C(=O)NC3(CCC3)C(=O)N(C)[C@@H](C3CCCC3)C(=O)N(C)[C@H](C(=O)N(C)C)CC(=O)N(C)[C@@H](CC)C(=O)N[C@@H]([C@@H](C)CC)C(=O)N(C)CC(=O)N(C)[C@H]3CCCCN(C3=O)[C@@H](Cc3ccc(C(F)(F)F)cc3)C(=O)N(C)CC(=O)N[C@@H](CCc3c(F)c(F)c(C(F)(F)F)c(F)c3F)C(=O)N2C1 [PP0886] | C (A compound having a KD ratio of 0.1 or more and less than 3 is denoted as C) | B (a compound having 3 or more and less than 10 is denoted as B)
